Consider five compounds from US6589945B1, “Use of sterolsulfates as active substances for producing means to inhibit serin proteases” (Cognis Deutschland GmbH & Co. KG, priority 1996, dated 2003).

The test system of the assay is Elastase. Kind of assay: Elastase-inhibiting effect of sterol derivatives. The assay is classed as biochemical. The text has this: The elastase-inhibiting effect of various sterol derivatives was investigated in the concentration range from 2.5 to 1000 ppm.

Turning to `CC(=O)O[C@H]1CC[C@@]2(C)C(=CC[C@H]3[C@@H]4CC[C@H]([C@H](C)CCCC(C)C)[C@@]4(C)CC[C@@H]32)C1` [Example C1, Cholesterol acetate], the Elastase-inhibiting effect runs as follows: (2.5 ppm inhibitor) 0 %-rel; (5 ppm inhibitor) 0 %-rel; (12.5 ppm inhibitor) 0 %-rel; (500 ppm inhibitor) 33 %-rel; (1000 ppm inhibitor) 59 %-rel.

For Phytosterol succinate [Example C2], the Elastase-inhibiting effect is listed as 0 %-rel (2.5 ppm inhibitor); 0 %-rel (5 ppm inhibitor); 0 %-rel (12.5 ppm inhibitor); 0 %-rel (500 ppm inhibitor); 0 %-rel (1000 ppm inhibitor).

As to “Phytosterol sulfate, sodium salt [Example 2]”, the Elastase-inhibiting effect runs as follows: (2.5 ppm inhibitor) 31 %-rel; (5 ppm inhibitor) 64 %-rel; (12.5 ppm inhibitor) 98 %-rel.

As for Phytosterol phosphate [Example C3], the Elastase-inhibiting effect is, setting by setting: (2.5 ppm inhibitor) 0 %-rel; (5 ppm inhibitor) 0 %-rel; (12.5 ppm inhibitor) 0 %-rel; (500 ppm inhibitor) 0 %-rel; (1000 ppm inhibitor) 30 %-rel.

As to `CC(C)CCC[C@@H](C)[C@H]1CC[C@H]2[C@@H]3CC=C4C[C@@H](OS(=O)(=O)[O-])CC[C@]4(C)[C@H]3CC[C@]12C.[Na+]` [Example 1, Cholesterol sulfate, sodium salt], the Elastase-inhibiting effect was 49 %-rel (2.5 ppm inhibitor), 92 %-rel (5 ppm inhibitor) and 100 %-rel (12.5 ppm inhibitor).
